# Source: patent US9643928B2, “Crystalline forms of {[1-cyano-5-(4-chlorophenoxy)-4-hydroxy-isoquinoline-3-carbonyl]-amino}-acetic acid” (FIBROGEN, INC., priority 2013, dated 2017)
# “Also recorded” adds a separate entry of the source.
# Assays:
# [1] = tested on: male Swiss Webster mice; test: Hemoglobin and hematocrit levels in mice after 1 week of intermittent oral dosing; assay type: in vivo
# Method: Compound A (2, 6, 20, 60, 100 or 200 mg/kg as an oral gavage) or vehicle control were administered orally 3 times in 1 week on Monday, Wednesday, and Friday (4-8 male Swiss Webster mice/group). Three days after the last dose, all animals were euthanized and blood and serum were collected for complete blood counts (CBC) and serum chemistry.
# [2] = tested on: healthy male volunteers; test: Single oral dose in healthy male volunteers: erythropoietin, reticulocyte and hemoglobin levels; assay type: in vivo, human
# Method: A single dose of Compound A (Form 2, capsules) was administered orally to healthy male volunteers. Compound A was provided in 1 mg and 5 mg capsules with the dose being rounded to the nearest whole capsule. In cohorts 1-4 the doses were 0.05 mg/kg, 0.15 mg/kg, 0.3 mg/kg and 0.4 mg/kg respectively. The time points for blood collection were: predose, 8, 12, 16, 20, 24, 30, 48, 72, 96 and 120 hours, days 8, 10, 12, and 15 post dose.
# [3] = tested on: Female Wistar rats with subtotal nephrectomy; test: Anemia induced by chronic kidney disease (5/6 nephrectomy, rat remnant kidney model); assay type: in vivo
# Excerpt: Female Wistar rats underwent subtotal nephrectomy (⅚) surgery to induce chronic kidney disease by ligating the left kidney to infarct ⅔ of the kidney while the right kidney underwent simultaneous total nephrectomy. As a control, additional animals underwent a sham surgery, without nephrectomy. Five weeks after surgery, anemia and chronic kidney disease in the nephrectomized animals were confirmed by clinical pathology and animals were then assigned to one of three treatment groups (n=8/group) and treated with 0 (vehicle), 8 or 20 mg/kg Compound A. The sham group (n=8) received 0 mg/kg (vehicle). Starting 6 weeks after surgery, all animals were dosed TIW (on Monday, Wednesday, and Friday) via oral gavage for 2 weeks. Whole blood samples were collected 5, 7, and 8 weeks after surgery.
# [4] = tested on: Female Lewis rats challenged with peptidoglycan-polysaccharide polymers (PG-PS); test: Anemia of chronic disease model (PG-PS challenge); assay type: in vivo
# Method: Female Lewis rats were challenged with peptidoglycan-polysaccharide polymers (PG-PS) to induce arthritis and anemia. Arthritis and anemia were allowed to develop for 28 days prior to initiation of treatment with Compound A (oral gavage, 8 or 20 mg/kg) or vehicle (n=8/group). Treatments were administered 3 times per week (Monday, Wednesday, and Friday), for 2 weeks. Progression of the model was monitored by measurement of paw swelling and hematology parameters. Blood samples were analyzed for hematopoiesis and iron parameters. The study also included three non-challenged control groups (n=5/group) that were injected with saline rather than PG-PS and then treated with vehicle or Compound A (8 or 20 mg/kg) as described for the PG-PS animals. […] In addition to anemia, PG-PS-challenged rats developed systemic inflammation and arthritis, as indicated by elevated white blood cell counts and swelling of the extremities.
# [5] = Reflux of Form 1 in water, monitored by XRPD; assay type: physicochemical
# Excerpt: Form 1 was refluxed in water and the crystallinity of the solid was monitored by XRPD.
# [6] = Relative stability of Form 1 and Form 2 (summary of Example 3); assay type: physicochemical
# Excerpt: The relative stability of Form 1 and Form 2 have been studied under different conditions (see Example 3).
# [7] = Stability of Form 1 in water at 25° C., XRPD; assay type: physicochemical; conditions: six days
# Method: Form 1 was suspended in water at 25° C., and the crystallinity of the solid was analysed by XRPD over a period of time.
# [8] = Maturation of Form 1 in water with or without seeds of Form 2, XRPD; assay type: physicochemical; conditions: 50° C./room temperature (4 h-cycles), 75% RH
# Method: A suspension of a solid mixture of Form 1 and Form 2 (1:1) in water was incubated at 50° C./room temperature (4 h-cycles), and at 75% RH for four days. After this time, the solid was analysed by XRPD. The crystalline pattern matched Form 2, and no traces of Form 1 were detected in this analysis.
# Form 1 was suspended in water and incubated at 50° C./room temperature (4 h-cycles), and at 75% RH. In this case, the transformation of Form 1 into Form 2 was slower.
# [9] = Stability of solid forms in humidity chamber at 40° C. and 75% RH, re-analysed by XRPD; assay type: physicochemical; conditions: one week
# Method: The solids were then stored in the humidity chamber at 40° C. and 75% RH for a week to assess their stability under these conditions, and re-analysed by XRPD.
# [10] = all dose groups 2-200 mg/kg, oral gavage 3 times in 1 week, three days after last dose
# [11] = cohort 2, 0.15 mg/kg single oral dose
# [12] = cohort 3, 0.3 mg/kg single oral dose
# [13] = 8 and 20 mg/kg oral TIW, after 2 weeks of treatment
# [14] = 8 or 20 mg/kg oral 3 times per week for 2 weeks, statistically significant at 20 mg/kg
structure (smiles),measurement,setting,value
"N#Cc1nc(C(=O)NCC(=O)O)c(O)c2c(Oc3ccc(Cl)cc3)cccc12 [Compound A, {[1-cyano-5-(4-chlorophenoxy)-4-hydroxy-isoquinoline-3-carbonyl]-amino}-acetic acid]",Mean hematocrit (HCT) compared to vehicle control,[1]; [10],significantly higher
same,Mean hemoglobin (Hb) compared to vehicle control,[1]; [10],significantly higher
same,Mean red blood counts (RBC) compared to vehicle control,[1]; [10],significantly higher
same,Hb levels increase,"[1]; lowest dose tested, 2 mg/kg, 1-week study",more than 1 g/dL
same,change in mean hemoglobin levels,"[2]; Cohort 1, 0.05 mg/kg, Day 0 to Day 8",did not change
same,Reticulocyte values (% baseline ± SD),"[2]; Cohort 1, 0.05 mg/kg, Day 3",104 ± 8 % baseline
same,Reticulocyte values (% baseline ± SD),"[2]; Cohort 1, 0.05 mg/kg, Day 5",111 ± 10 % baseline
same,Reticulocyte values (% baseline ± SD),"[2]; Cohort 1, 0.05 mg/kg, Day 8",120 ± 20 % baseline
same,Reticulocyte values (% baseline ± SD),"[2]; Cohort 2, 0.15 mg/kg, Day 3",111 ± 19 % baseline
same,Reticulocyte values (% baseline ± SD),"[2]; Cohort 2, 0.15 mg/kg, Day 5",121 ± 22 % baseline
same,Reticulocyte values (% baseline ± SD),"[2]; Cohort 3, 0.3 mg/kg, Day 3",127 ± 3 % baseline
same,Reticulocyte values (% baseline ± SD),"[2]; Cohort 3, 0.3 mg/kg, Day 5",141 ± 22 % baseline
same,Reticulocyte values (% baseline ± SD),"[2]; Cohort 4, 0.4 mg/kg, Day 3",163 ± 21 % baseline
same,Reticulocyte values (% baseline ± SD),"[2]; Cohort 4, 0.4 mg/kg, Day 5",134 ± 22 % baseline
same,time of peak erythropoietin levels,"[2]; cohort 1, 0.05 mg/kg single oral dose",approximately 16.8 hours
same,mean maximum plasma erythropoietin concentration,"[2]; cohort 1, 0.05 mg/kg single oral dose, baseline mean 11.4 mIU/mL",27.2 mIU/mL
same,median maximum erythropoietin concentration,[2]; [11],81.7 mIU/ml
same,time of peak erythropoietin levels (mean),[2]; [11],14 h
same,time until mean erythropoietin levels trended back to baseline,[2]; [11],approximately 5 days
same,Reticulocyte values (% baseline ± SD),"[2]; cohort 2, 0.15 mg/kg, Day 8",180 ± 53 % baseline
same,mean hemoglobin increase,"[2]; cohort 2, 0.15 mg/kg, Day 8",0.3 g/dL
same,average maximum erythropoietin concentration,[2]; [12],approximately 620 mIU/mL
same,time of peak erythropoietin levels (mean),[2]; [12],23 h
same,Reticulocyte values (% baseline ± SD),"[2]; cohort 3, 0.3 mg/kg, Day 8",231 ± 40 % baseline
same,mean hemoglobin increase,"[2]; cohort 3, 0.3 mg/kg, Day 8",0.8 g/dL
same,median time to maximum EPO concentration,"[2]; cohort 4, 0.4 mg/kg single oral dose",20 h
same,mean maximum plasma erythropoietin concentration,"[2]; cohort 4, 0.4 mg/kg single oral dose, pending re-analysis of one sample above upper limit of quantitation","2,900 mIU/mL"
same,Reticulocyte values (% baseline ± SD),"[2]; cohort 4, 0.4 mg/kg, Day 8",376 ± 60 % baseline
same,mean hemoglobin increase,"[2]; cohort 4, 0.4 mg/kg, Day 8",0.7 g/dL
same,mean hemoglobin increase,"[2]; cohort 4, 0.4 mg/kg, Day 15",1.1 g/dL
same,"Hb, HCT and RBC (all three parameters) relative to non-anemic sham control group","[3]; 20 mg/kg oral TIW, 2 weeks",normalized
same,MCV in nephrectomized animals,"[3]; 20 mg/kg, after 2 weeks of treatment",significantly higher
same,HCT compared to vehicle controls,[3]; [13],significantly elevated
same,Hb compared to vehicle controls,[3]; [13],significantly elevated
same,RBC compared to vehicle controls,[3]; [13],significantly elevated
same,MCH values in nephrectomized animals,"[3]; 8 and 20 mg/kg, not significant",higher
same,anemia associated with 5/6 nephrectomy,[3]; intermittent treatment for 2 weeks,corrected
same,HCT decrease induced by PG-PS challenge,[4]; [14],corrected
same,Hb decrease induced by PG-PS challenge,[4]; [14],corrected
same,MCH decrease induced by PG-PS challenge,[4]; [14],corrected
same,RBC decrease induced by PG-PS challenge,[4]; [14],corrected
same,TIBC increase induced by PG-PS challenge,[4]; [14],corrected
same,anemia associated with anemia of chronic disease,[4]; intermittent treatment,significantly alleviated
"N#Cc1nc(C(=O)NCC(=O)O)c(O)c2c(Oc3ccc(Cl)cc3)cccc12 [Form 1, {[1-cyano-5-(4-chlorophenoxy)-4-hydroxy-isoquinoline-3-carbonyl]-amino}-acetic acid]",crystallinity by XRPD on reflux in water,[5]; after 2.5 h,several new diffraction peaks corresponding to Form 2
same,crystallinity by XRPD on reflux in water,[5]; after 10 h at reflux,transformation of Form 1 into Form 2 was complete
same,hygroscopicity,[6],low hygroscopicity
same,stability to humidity,[6],stable
same,conversion of form on maturation in isopropyl acetate (IPAc),"[6]; 5° C., 25° C. and 50° C.",converts to Form 2
same,conversion of form on heating,[6]; heating above 200° C.,converts to Form 2
same,changes in crystalline pattern in aqueous suspension,[7],remains unchanged; also recorded: No changes
same,transformation on maturation in water without seeds of Form 2,[8]; after 4 days,clear indication of Form 2 forming
same,transformation on maturation in water without seeds of Form 2,[8]; after 15 days,completely turned to Form 2
"N#Cc1nc(C(=O)NCC(=O)O)c(O)c2c(Oc3ccc(Cl)cc3)cccc12 [Form 2, {[1-cyano-5-(4-chlorophenoxy)-4-hydroxy-isoquinoline-3-carbonyl]-amino}-acetic acid]",hygroscopicity,[6],low hygroscopicity
same,stability to humidity,[6],stable
same,relative thermodynamic stability,[6]; conditions investigated,thermodynamically more stable than Form 1
same,transformation of Form 2 into Form 1,[6]; conditions investigated,has not been observed
same,Stability at 40° C./75% RH (form found by XRPD),[9],remained unchanged; also recorded: Form 2
N#Cc1nc(C(=O)NCC(=O)O)c(O)c2c(Oc3ccc(Cl)cc3)cccc12 [XRPD 7],Stability at 40° C./75% RH (form found by XRPD),[9],changed into Form 2
